Results reported in ChEMBL document CHEMBL4138123, “Design, synthesis and biological evaluation of novel pyrazolochalcones as potential modulators of PI3K/Akt/mTOR pathway and inducers of apoptosis in breast cancer cells” (Eur J Med Chem, 2017).

Tests used:
Format in all cases: functional
U-251 = test: Cytotoxicity against human U251 cells assessed as cell growth at 10 uM after 48 hrs by sulforhodamine B assay relative to control; conditions: U-251, 48 h, read-out: Activity
HT-29 [1] = test: Cytotoxicity against human HT-29 cells assessed as cell growth at 1 uM after 48 hrs by sulforhodamine B assay relative to control; conditions: HT-29, 48 h, read-out: Activity
SR [2] = test: Cytotoxicity against human SR cells assessed as cell growth at 100 uM after 48 hrs by sulforhodamine B assay relative to control; conditions: read-out: Activity
SNB-19 [3] = test: Cytotoxicity against human SNB19 cells assessed as cell growth at 0.01 uM after 48 hrs by sulforhodamine B assay relative to control; conditions: SNB-19, 48 h, read-out: Activity
PC-3 [4] = test: Cytotoxicity against human PC3 cells assessed as cell growth at 10 uM after 48 hrs by sulforhodamine B assay relative to control; conditions: PC-3, 48 h, read-out: Activity
HOP-62 = test: Cytotoxicity against human HOP62 cells assessed as cell growth at 10 uM after 48 hrs by sulforhodamine B assay relative to control; conditions: HOP-62, 48 h, read-out: Activity
Hs-578T [5] = test: Cytotoxicity against human Hs 578T cells assessed as growth inhibition after 48 hrs by sulforhodamine B assay
M14 = test: Cytotoxicity against human M14 cells assessed as cell growth at 1 uM after 48 hrs by sulforhodamine B assay relative to control; conditions: M14, 48 h, read-out: Activity
HT-29 [6] = test: Cytotoxicity against human HT-29 cells assessed as growth inhibition after 48 hrs by sulforhodamine B assay; conditions: HT-29, 48 h
SR [7] = test: Cytotoxicity against human SR cells assessed as cell growth at 1 uM after 48 hrs by sulforhodamine B assay relative to control; conditions: read-out: Activity
SW-620 = test: Cytotoxicity against human SW620 cells assessed as cell growth at 1 uM after 48 hrs by sulforhodamine B assay relative to control; conditions: SW-620, 48 h, read-out: Activity
NCI/ADR-RES = test: Cytotoxicity against human NCI/ADR-RES cells assessed as cell growth at 10 uM after 48 hrs by sulforhodamine B assay relative to control; conditions: read-out: Activity
PC-3 [8] = test: Cytotoxicity against human PC3 cells assessed as cell growth at 0.01 uM after 48 hrs by sulforhodamine B assay relative to control; conditions: PC-3, 48 h, read-out: Activity
IGROV-1 = test: Cytotoxicity against human IGROV1 cells assessed as growth inhibition after 48 hrs by sulforhodamine B assay; conditions: IGROV-1, 48 h
HCT-15 = test: Cytotoxicity against human HCT15 cells assessed as cell growth at 100 uM after 48 hrs by sulforhodamine B assay relative to control; conditions: HCT-15, 48 h, read-out: Activity
SF-539 = test: Cytotoxicity against human SF539 cells assessed as cell growth at 0.01 uM after 48 hrs by sulforhodamine B assay relative to control; conditions: SF-539, 48 h, read-out: Activity
NCI-H322M = test: Cytotoxicity against human NCI-H322M cells assessed as cell growth at 0.1 uM after 48 hrs by sulforhodamine B assay relative to control; conditions: read-out: Activity
T47D = test: Cytotoxicity against human T47D cells assessed as cell growth at 0.01 uM after 48 hrs by sulforhodamine B assay relative to control; conditions: read-out: Activity
SN12C = test: Cytotoxicity against human SN12C cells assessed as cell growth at 1 uM after 48 hrs by sulforhodamine B assay relative to control; conditions: read-out: Activity
OVCAR-3 = test: Cytotoxicity against human OVCAR3 cells assessed as growth inhibition after 48 hrs by sulforhodamine B assay; conditions: OVCAR-3, 48 h
LOX IMVI = test: Cytotoxicity against human LOXIMVI cells assessed as growth inhibition after 48 hrs by sulforhodamine B assay
Hs-578T [9] = test: Cytotoxicity against human Hs 578T cells assessed as cell growth at 1 uM after 48 hrs by sulforhodamine B assay relative to control; conditions: read-out: Activity
786-0 = test: Cytotoxicity against human 786-0 cells assessed as cell growth at 1 uM after 48 hrs by sulforhodamine B assay relative to control; conditions: 786-0, 48 h, read-out: Activity
SNB-19 [10] = test: Cytotoxicity against human SNB19 cells assessed as cell growth at 1 uM after 48 hrs by sulforhodamine B assay relative to control; conditions: SNB-19, 48 h, read-out: Activity
MDA-MB-468 = test: Cytotoxicity against human MDA-MB-468 cells assessed as cell growth at 10 uM after 48 hrs by sulforhodamine B assay relative to control; conditions: MDA-MB-468, 48 h, read-out: Activity
OVCAR-5 [11] = test: Cytotoxicity against human OVCAR5 cells assessed as cell growth at 100 uM after 48 hrs by sulforhodamine B assay relative to control; conditions: OVCAR-5, 48 h, read-out: Activity
HCC 2998 [12] = test: Cytotoxicity against human HCC2998 cells assessed as cell growth at 1 uM after 48 hrs by sulforhodamine B assay relative to control; conditions: HCC 2998, 48 h, read-out: Activity
HL-60(TB) = test: Cytotoxicity against human HL-60(TB) cells assessed as cell growth at 100 uM after 48 hrs by sulforhodamine B assay relative to control; conditions: HL-60, 48 h, read-out: Activity
DU-145 = test: Cytotoxicity against human DU145 cells assessed as cell growth at 0.01 uM after 48 hrs by sulforhodamine B assay relative to control; conditions: DU-145, 48 h, read-out: Activity
HCC 2998 [13] = test: Cytotoxicity against human HCC2998 cells assessed as cell growth at 100 uM after 48 hrs by sulforhodamine B assay relative to control; conditions: HCC 2998, 48 h, read-out: Activity
SF-268 = test: Cytotoxicity against human SF268 cells assessed as growth inhibition after 48 hrs by sulforhodamine B assay; conditions: SF-268, 48 h; for CC50: read-out: LC50 (the source's name)
OVCAR-5 [14] = test: Cytotoxicity against human OVCAR5 cells assessed as cell growth at 0.1 uM after 48 hrs by sulforhodamine B assay relative to control; conditions: OVCAR-5, 48 h, read-out: Activity
HT-29 [15] = test: Cytotoxicity against human HT-29 cells assessed as cell growth at 10 uM after 48 hrs by sulforhodamine B assay relative to control; conditions: HT-29, 48 h, read-out: Activity
MCF7 = test: Cytotoxicity against human MCF7 cells assessed as cell growth at 0.1 uM after 48 hrs by sulforhodamine B assay relative to control; conditions: MCF7, 48 h, read-out: Activity
SK-MEL-28 = test: Cytotoxicity against human SK-MEL-28 cells assessed as cell growth at 100 uM after 48 hrs by sulforhodamine B assay relative to control; conditions: SK-MEL-28, 48 h, read-out: Activity
RXF 393 = test: Cytotoxicity against human RXF393 cells assessed as cell growth at 10 uM after 48 hrs by sulforhodamine B assay relative to control; conditions: RXF 393, 48 h, read-out: Activity
NCI-H522 = test: Cytotoxicity against human NCI-H522 cells assessed as cell growth at 0.1 uM after 48 hrs by sulforhodamine B assay relative to control; conditions: NCI-H522, 48 h, read-out: Activity

## COc1ccc(C(=O)/C=C/c2cc(-c3cc(OC)c(OC)c(OC)c3)n[nH]2)cc1OC
U-251
  growth at 10 µM: -100%
HT-29 [1]
  growth at 1 µM: 88%
SR [2]
  growth at 100 µM: 3%
SNB-19 [3]
  growth at 0.01 µM: 91%
PC-3 [4]
  growth at 10 µM: -88%
HOP-62
  growth at 10 µM: -97%
Hs-578T [5]
  LC50: > 100 µM
  TGI: 8.2 µM
M14
  growth at 1 µM: 94%
HT-29 [6]
  LC50: 5.75 µM
  TGI: 3.05 µM
SR [7]
  growth at 1 µM: 11%
SW-620
  growth at 1 µM: 70%
NCI/ADR-RES
  growth at 10 µM: 10%
PC-3 [8]
  growth at 0.01 µM: 96%
IGROV-1
  LC50: 6.48 µM
  TGI: 3.41 µM
HCT-15
  growth at 100 µM: -60%
SF-539
  growth at 0.01 µM: 97%
NCI-H322M
  growth at 0.1 µM: 101%
T47D
  growth at 0.01 µM: 93%
SN12C
  growth at 1 µM: 80%
OVCAR-3
  LC50: 5.97 µM
  TGI: 3.17 µM
LOX IMVI
  LC50: 5.53 µM
  TGI: 2.76 µM
Hs-578T [9]
  growth at 1 µM: 91%
786-0
  growth at 1 µM: 74%
SNB-19 [10]
  growth at 1 µM: 73%
MDA-MB-468
  growth at 10 µM: -87%
OVCAR-5 [11]
  growth at 100 µM: -71%
HCC 2998 [12]
  growth at 1 µM: 116%
HL-60(TB)
  growth at 100 µM: -51%
DU-145
  growth at 0.01 µM: 104%
HCC 2998 [13]
  growth at 100 µM: -86%
SF-268
  TGI: 3.96 µM
  CC50: 8.59 µM
OVCAR-5 [14]
  growth at 0.1 µM: 88%
HT-29 [15]
  growth at 10 µM: -94%
MCF7
  growth at 0.1 µM: 91%
SK-MEL-28
  growth at 100 µM: -90%
RXF 393
  growth at 10 µM: -98%
NCI-H522
  growth at 0.1 µM: 91%

## COc1ccc(C(=O)/C=C/c2cc(-c3cc(OC)c(OC)c(OC)c3)n[nH]2)cc1
U-251
  growth at 10 µM: -98%
HT-29 [1]
  growth at 1 µM: 95%
SR [2]
  growth at 100 µM: -5%
SNB-19 [3]
  growth at 0.01 µM: 97%
PC-3 [4]
  growth at 10 µM: -68%
HOP-62
  growth at 10 µM: -64%
Hs-578T [5]
  LC50: > 100 µM
  TGI: > 100 µM
M14
  growth at 1 µM: 99%
HT-29 [6]
  TGI: 4.19 µM
SR [7]
  growth at 1 µM: 22%
SW-620
  growth at 1 µM: 82%
NCI/ADR-RES
  growth at 10 µM: -1%
PC-3 [8]
  growth at 0.01 µM: 99%
IGROV-1
  LC50: > 100 µM
  TGI: 4.81 µM
HCT-15
  growth at 100 µM: -33%
SF-539
  growth at 0.01 µM: 97%
NCI-H322M
  growth at 0.1 µM: 96%
T47D
  growth at 0.01 µM: 96%
SN12C
  growth at 1 µM: 91%
OVCAR-3
  LC50: 7.27 µM
  TGI: 3.56 µM
LOX IMVI
  TGI: 3.02 µM
Hs-578T [9]
  growth at 1 µM: 96%
786-0
  growth at 1 µM: 94%
SNB-19 [10]
  growth at 1 µM: 79%
MDA-MB-468
  growth at 10 µM: -92%
OVCAR-5 [11]
  growth at 100 µM: -59%
HCC 2998 [12]
  growth at 1 µM: 94%
HL-60(TB)
  growth at 100 µM: -31%
DU-145
  growth at 0.01 µM: 102%
HCC 2998 [13]
  growth at 100 µM: -82%
SF-268
  TGI: 5.12 µM
  CC50: > 100 µM
OVCAR-5 [14]
  growth at 0.1 µM: 97%
HT-29 [15]
  growth at 10 µM: -58%
MCF7
  growth at 0.1 µM: 93%
SK-MEL-28
  growth at 100 µM: -87%
RXF 393
  growth at 10 µM: -97%
NCI-H522
  growth at 0.1 µM: 87%
